“Also recorded” adds a separate entry of the source. Starred links: 1 amine or outer side, 2 acyl side, 3 side chain; linkers in the order of their positions; H or OH if unused. Positions of bridges follow the written chain, without caps; N, C: chain ends. Non-standard residues stand in square brackets, D forms with d. Residues, ends and D or L forms follow the SMILES beside them. Chains are numbered I, II in the order given. Actinocin(9to1) = Cc1c2oc3c(C)ccc(C(=O)[*:1])c3nc-2c(C(=O)[*:2])c(N)c1=O; NMeV = CN[C@H](C(=O)O)C(C)C; Sar = CNCC(=O)O
How the values were obtained:
[1] = tested on: IN tissue; test: Pilot dose studies of ActD infusion into the IN (tissue damage); format: in vivo, New Zealand White male rabbits (Oryctolagus cuniculus); conditions: e.g. 5 ng, infused into IN
From the text: Stainless steel guide cannulas (25 ga) were implanted in the head of the animals with the tip fixed at 1.5 to 2.0 mm dorsal to the IN ipsilateral to the eye to be trained (left) (stereotaxic coordinates from lambda: 0.8 mm anterior, 5.2 mm lateral, and 14.0 mm ventral). Each guide cannula was filled with an inner stainless steel stylet designed to keep the guide cannula patent. Animals were given 5 days to recover from surgery. At infusion the stylet was removed and an inner cannula (31 ga) was inserted to the target locus. Delivery of fluids through the inner cannula was accomplished by a 10 μl Hamilton syringe driven by a syringe pump. Fluids were delivered to the target area at a rate of 0.38 μl per min for 2.6 min. […] […] The animals were given 2 days rest and then trained for 5 more days without drug infusion. At training day 11, the experimental group was treated with 1 μg muscimol which is known to reversibly inactivate the IN (Krupa and Thompson, 1997). For the control group, 1 μl of ACSF (vehicle) was infused into the IN for 5 days (n=5). At day 6, control animals were infused with 1 ng of ActD 30 min prior to training. On training day 7, 1 μg of muscimol was infused.

[2] = tested on: eyeblink/nictitating membrane conditioned responses (CRs); infusion into dorsal anterior IN; test: Eyeblink conditioning after drug infusion into the interpositus nucleus (IN); format: in vivo, New Zealand White male rabbits (Oryctolagus cuniculus)
Description: Rabbits underwent eyeblink training 30 min. after infusion of 1 ng of actinomycin D (ActD) or artificial cerebrospinal fluid (ACSF) into the dorsal anterior IN ipsilateral to the trained eye. Rabbits were trained with 10 paired tone-air trials per day to insure that ActD could act during learning (see Methods). […] Most animals in the experimental group reached criterion after 5 days of additional training without drug infusion.
New Zealand White male rabbits (Oryctolagus cuniculus), weighing between 2 and 3 kg were individually housed at the University of Southern California Hedco Neuroscience Building vivariunm with a 12-hr light and dark cycle. The experiment was conducted during the light phase of the cycle. Rabbits had ad lib access to food and water.
Stainless steel guide cannulas (25 ga) were implanted in the head of the animals with the tip fixed at 1.5 to 2.0 mm dorsal to the IN ipsilateral to the eye to be trained (left) (stereotaxic coordinates from lambda: 0.8 mm anterior, 5.2 mm lateral, and 14.0 mm ventral). Each guide cannula was filled with an inner stainless steel stylet designed to keep the guide cannula patent. Animals were given 5 days to recover from surgery. At infusion the stylet was removed and an inner cannula (31 ga) was inserted to the target locus. Delivery of fluids through the inner cannula was accomplished by a 10 μl Hamilton syringe driven by a syringe pump. Fluids were delivered to the target area at a rate of 0.38 μl per min for 2.6 min. For the experimental group, 1 ng of ActD (in 1 μl of vehicle) was infused daily 30 min prior to the start of each training session for 5 days (n=7). […] The animals were given 2 days rest and then trained for 5 more days without drug infusion. At training day 11, the experimental group was treated with 1 μg muscimol which is known to reversibly inactivate the IN (Krupa and Thompson, 1997). For the control group, 1 μl of ACSF (vehicle) was infused into the IN for 5 days (n=5). At day 6, control animals were infused with 1 ng of ActD 30 min prior to training. On training day 7, 1 μg of muscimol was infused.
For the infusion experiments, all animals were subjected to eye-blink conditioning under the delay paradigm. The rabbits were allowed one day (1 hour) of habituation to the restrainer and the behavioral recording chamber. On the following day, paired tone-airpuff training began. For each day, the training session began 30 min post drug infusion and we gave only 10 trials/day (instead of the standard 100 trials per day, see below) in order to maximize the possibility that ActD was acting on the learning process before the long term memory had been well established. The tone CS was a 350 ms, 1000 Hz., 85 dB tone and the airpuff US was a 100 ms puff of air (3 psi at the source) delivered to the rabbit's cornea, the CS and US coterminating. The mean intertrial interval (ITI) was 60±10 sec. Nictitating membrane (NNI) conditioned responses (CRs) were measured using a minitorque potentiometer attached to a small loop of monofilament nylon thread on the NM of the rabbit's left, eye. Output of the potentiometer was digitized and recorded by computer. A conditioned response was defined as any NM extension response greater than 0.5 mm that occurred after tone onset but before airpuff onset. The intra- and intertrial timing, stimulus presentations, data collection and analysis were performed by a PC with a program written in Forth and machine language (Lavond and Steinmetz, 1989b).

[3] = tested on: eyeblink conditioning; conditions: infusion into the IN, rabbit (Bracha and Bloedel, 1996); cited from earlier work

Cc1c2oc3c(C)ccc(C(=O)N[C@@H]4C(=O)N[C@H](C(C)C)C(=O)N5CCC[C@H]5C(=O)N(C)CC(=O)N(C)[C@@H](C(C)C)C(=O)O[C@@H]4C)c3nc-2c(C(=O)N[C@@H]2C(=O)N[C@H](C(C)C)C(=O)N3CCC[C@H]3C(=O)N(C)CC(=O)N(C)[C@@H](C(C)C)C(=O)O[C@@H]2C)c(N)c1=O [ActD, actinomycin D] (I: T[dV]P[Sar][NMeV] / II: T[dV]P[Sar][NMeV]; ester I:1-I:C, II:1-II:C; linker I:N-II:N via Actinocin(9to1))
Tissue damage at higher doses [1]: caused permanent damage to the tissue
Acquisition of conditioned responses (CRs) during 5 days of training ([2]; 1 ng infused into IN daily 30 min before training, 5 days, 10 paired CS-US trials per day, n=7, vs ACSF): low levels of CRs; also recorded: completely prevents learning; also recorded: inhibited eyeblink conditioning
Expression of already acquired CRs ([2]; 1 ng infused into IN on day 6 in control animals conditioned under ACSF (n=5)): did not prevent expression of acquired CRs; also recorded: no effect on the performance of CRs
CRs on training without drug after ActD treatment (reversibility) ([2]; experimental group, 2 days rest, then training days 6-10 without drug infusion): gradual increase of CRs

COc1ccc(C[C@H]2NC[C@H](O)[C@H]2OC(C)=O)cc1 [anisomycin]
Effect on eyeblink conditioning [3]: interfered with conditioning

NCc1cc(=O)[nH]o1 [muscimol]
Expression of CRs, experimental group day 11 ([2]; 1 μg infused into IN at day 11, experimental group after retraining): completely abolished the expression of CRs
Expression of CRs, control group day 7 ([2]; 1 μg infused into IN on day 7, conditioned control animals): completely abolished the CRs
